The values below come from US10947237B2, “Antimicrobial compounds and methods of making and using the same” (BIOVERSYS AG, priority 2015, dated 2021).

Assay [1] has as its system Eschericia coli (E. Coli) strain ATCC25922. Description: standard microdilution assay, minimum inhibitory concentration (MIC). It is filed as cell-based. The conditions noted are these: Escherichia coli; Table 2; strain ATCC25922. Summed up: (§1)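 MICs were determined by broth microdilution per CLSI protocols (M7-A8, M100-S20), with reference strains run for quality control. Tested strains were E. coli ATCC25922 and S. aureus 11540. Activity was scored +/− against a 16 µg/mL cutoff.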
Background: Dilution methods test growth across graded concentrations, often in twofold steps.

Assay [2] deals with Staphylococcus aureus (S. aureus) 11540 strain. The assay is described as above. The class given is cell-based. The settings on record: Table 2, 11540 strain. A digest of the protocol:
as §1

Regarding `C[C@H](N)CCCc1cc(Cl)c(F)c(-c2cc3cn(-c4ccc(CN[C@H](CCNC(=N)N)CNc5ncccc5F)cc4)c(=O)nc3[nH]2)c1` [Compound 106], the MIC in assay [1] and in assay [2] was not above 16 µg/mL in each case.
With `C[C@H](N)CCCc1cc(Cl)c(F)c(-c2cc3cn(-c4ccc(CN[C@@H](CF)CCNC(=N)N)cc4)c(=O)nc3[nH]2)c1` [Compound 107], the minimal inhibitory concentration (MIC) in assay [1] and in assay [2] was not above 16 µg/mL throughout.
Take `C[C@H](N)CCCc1cc(Cl)c(F)c(-c2cc3cn(-c4ccc([C@@H]5C[C@H](Nc6nccs6)C[C@@H](CCNC(=N)N)O5)cc4)c(=O)nc3[nH]2)c1` [Compound 108]: the minimum inhibitory concentration (MIC) in assay [1] and in assay [2] was not above 16 µg/mL throughout.
For `C[C@H](N)CCCc1cc(Cl)c(F)c(-c2[nH]c3nc(=O)n(-c4ccc(CN[C@H](C)CCNC(=N)N)cc4)cc3c2[N+](=O)[O-])c1` [Compound 109], the values for the MIC in assay [1] and in assay [2] were more than 16 µg/mL and not above 16 µg/mL, respectively.
For `C[C@H](N)CCCc1cc(-c2[nH]c3nc(=O)n(-c4ccc([C@H](C)NCCCNC(=N)N)cc4)cc3c2[N+](=O)[O-])c(F)c(Cl)c1[N+](=O)[O-]` [Compound 110], the MIC in assay [1] and in assay [2] was more than 16 µg/mL in each case.
On to `C[C@H](N)CCCc1cc(Cl)c(F)c(-c2[nH]c3nc(=O)n(-c4ccc([C@H](C)NCCCNC(=N)N)cc4)cc3c2[N+](=O)[O-])c1[N+](=O)[O-]` [Compound 111], for which the figures for the MIC in assay [1] and in assay [2] were more than 16 µg/mL and not above 16 µg/mL, respectively.
Taken in the same sequence, the figures for `C[C@@H](CCNC(=N)N)OCc1ccc(-n2cc3cc(CCNC4CCNCC4)[nH]c3nc2=O)cc1` [Compound 112] were more than 16 µg/mL and more than 16 µg/mL.
Taken in the same sequence, the figures for `N=C(N)NCC[C@H](CNc1ncc[nH]1)OCc1ccc(-n2cc3cc(C4CCNC4)[nH]c3nc2=O)cc1` (stereo partly drawn) [Compound 113] were not above 16 µg/mL and more than 16 µg/mL.
Taken in the same sequence, the figures for `N=C(N)NCC[C@H](CNC(=N)N)OCc1ccc(-n2cc3cc(CCNC4CCNCC4)[nH]c3nc2=O)cc1` [Compound 114] were not above 16 µg/mL and not above 16 µg/mL.
On to `CC(=N)NCC[C@@H]1CCC[C@@H](c2ccc(-n3cc4cc(C5CCNC5)[nH]c4nc3=O)cc2)N1` (stereo partly drawn) [Compound 115], for which the MIC in assay [1] and in assay [2] was not above 16 µg/mL throughout.
Turning to `CC1=NCC[C@@H]2CCC[C@@H](c3ccc(-n4cc5cc(C6CCNC6)[nH]c5nc4=O)cc3)N12` (stereo partly drawn) [Compound 116], the MIC in assay [1] and in assay [2] was more than 16 µg/mL in each case.
Turning to `CC(=N)NCC[C@@H]1CCC[C@@H](c2ccc(-n3cc4cc(CCNC5CCNCC5)[nH]c4nc3=O)cc2)N1` [Compound 117], the MIC in assay [1] and in assay [2] was not above 16 µg/mL in each case.
For the molecule `CC1=NCC[C@@H]2CCC[C@@H](c3ccc(-n4cc5cc(CCNC6CCNCC6)[nH]c5nc4=O)cc3)N12` [Compound 118], the minimal inhibitory concentration (MIC) in assay [1] and in assay [2] was more than 16 µg/mL in each case.
On to `C[C@H](N)CCCc1cc(Cl)c(F)c(-c2cc3cn(-c4ccc([C@H]5CC(N)C[C@H](CCNC(=N)N)O5)cc4)c(=O)nc3[nH]2)c1` (stereo partly drawn) [Compound 119], for which the MIC in assay [1] and in assay [2] was not above 16 µg/mL in each case.
Consider `CC(=N)NCC[C@H]1CC(N)C[C@H](c2ccc(-n3cc4cc(-c5cc(CCC[C@H](C)N)cc(Cl)c5F)[nH]c4nc3=O)cc2)O1` (stereo partly drawn) [Compound 120], for which the MIC in assay [1] and in assay [2] was not above 16 µg/mL in each case.
As for `N=C(N)NCC[C@H]1CC(N)C[C@H](c2ccc(-n3cc4cc(C5CCNC5)[nH]c4nc3=O)cc2)O1` (stereo partly drawn) [Compound 121], the MIC (usually the smallest concentration in the dilution series that meets the test's criterion for growth inhibition) was not above 16 µg/mL in assay [1] and more than 16 µg/mL in assay [2].
As for `N=C(N)NCC[C@H]1CC(N)C[C@H](c2ccc(-n3cc4cc(CCNC5CCNCC5)[nH]c4nc3=O)cc2)O1` (stereo partly drawn) [Compound 122], the MIC in assay [1] and in assay [2] was not above 16 µg/mL throughout.
`C[C@H](N)CCCc1cc(Cl)c(F)c(-c2cc3cn(-c4ccc([C@@H]5C[C@@H](Nc6nccs6)C[C@@H](CCNC(=N)N)O5)cc4)c(=O)nc3[nH]2)c1` [Compound 123]: the minimum inhibitory concentration (MIC) in assay [1] is more than 16 µg/mL; in assay [2] it was not above 16 µg/mL.
In the case of `N=C(N)NCC[C@@H]1C[C@H](Nc2nccs2)C[C@@H](c2ccc(-n3cc4cc(C5CCNC5)[nH]c4nc3=O)cc2)O1` (stereo partly drawn) [Compound 124], the MIC in assay [1] and in assay [2] was more than 16 µg/mL each time.
`N=C(N)NCC[C@@H]1C[C@@H](Nc2nccs2)C[C@@H](c2ccc(-n3cc4cc(C5CCNC5)[nH]c4nc3=O)cc2)O1` (stereo partly drawn) [Compound 125]: the MIC in assay [1] and in assay [2] was more than 16 µg/mL each time.
In the case of `N=C(N)NCC[C@H](CF)NCc1ccc(-n2cc3cc(C4CCNC4)[nH]c3nc2=O)cc1` (stereo partly drawn) [Compound 126], the MIC in assay [1] and in assay [2] was more than 16 µg/mL in each case.
As to `C[C@H](N)CCCc1cc(Cl)c(F)c(-c2cc3cn(-c4ccc([C@H]5CC(N)C[C@H](CCN)O5)cc4)c(=O)nc3[nH]2)c1` (stereo partly drawn) [Compound 127], the MIC in assay [1] and in assay [2] was not above 16 µg/mL throughout.
Consider `C[C@H](N)CCCc1cc(Cl)c(F)c(-c2cc3cn(-c4ccc([C@H]5CC(NC(=N)N)C[C@H](CCNC(=N)N)O5)cc4)c(=O)nc3[nH]2)c1` (stereo partly drawn) [Compound 128], for which the MIC in assay [1] and in assay [2] was not above 16 µg/mL in each case.
`N=C(N)NCC[C@H](CNC(=N)N)OCc1ccc(-n2cc3cc(C4CCNC4)[nH]c3nc2=O)cc1` (stereo partly drawn) [Compound 129]: the MIC in assay [1] and in assay [2] was not above 16 µg/mL each time.
On to `O=c1nc2[nH]c(C3CCNC3)cc2cn1-c1ccc([C@@H]2CCC[C@@H](CCc3ncc[nH]3)N2)cc1` (stereo partly drawn) [Compound 130], for which the results for the MIC in assay [1] and in assay [2] were not above 16 µg/mL and more than 16 µg/mL, respectively.
Regarding `C[C@@H](CCNC(=N)N)OCc1ccc(-n2cc3cc(C4CCNC4)[nH]c3nc2=O)cc1` (stereo partly drawn) [Compound 131], the MIC in assay [1] and in assay [2] was more than 16 µg/mL in each case.
As to `C=C[C@@H](CCNC(=N)N)OCc1ccc(-n2cc3cc(-c4cc(CCC[C@H](C)N)cc(Cl)c4F)[nH]c3nc2=O)cc1` [Compound 132], the MIC in assay [1] and in assay [2] was not above 16 µg/mL in each case.
Consider `C[C@H](N)CCCc1cc(Cl)c(F)c(-c2cc3cn(-c4ccc(N5CCO[C@H](CCNC(=N)N)C5)cc4)c(=O)nc3[nH]2)c1` [Compound 133], for which the MIC in assay [1] and in assay [2] was not above 16 µg/mL in each case.
`C[C@H](N)CCCc1cc(Cl)c(F)c(-c2cc3cn(-c4ccc(N5CCO[C@@H](CCNC(=N)N)C5)cc4)c(=O)nc3[nH]2)c1` [Compound 134]: the MIC in assay [1] and in assay [2] was not above 16 µg/mL each time.
For the molecule `C[C@H](N)CCCc1cc(Cl)c(F)c(-c2cc3cn(-c4ccc(CO[C@@H](CF)CCNC(=N)N)cc4)c(=O)nc3[nH]2)c1` [Compound 135], the MIC in assay [1] and in assay [2] was not above 16 µg/mL throughout.
For the molecule `N=C(N)NCC[C@H](CF)OCc1ccc(-n2cc3cc(C4CCNC4)[nH]c3nc2=O)cc1` (stereo partly drawn) [Compound 136], the MIC in assay [1] and in assay [2] was more than 16 µg/mL each time.
Take `CC(=N)NCC[C@H]1CC(NC(C)=N)C[C@H](c2ccc(-n3cc4cc(-c5cc(CCC[C@H](C)N)cc(Cl)c5F)[nH]c4nc3=O)cc2)O1` (stereo partly drawn) [Compound 137]: the MIC in assay [1] and in assay [2] was not above 16 µg/mL each time.
In the case of `C[C@H](N)CCCc1cc(Cl)c(F)c(-c2cc3cn(-c4ccc([C@H]5CC(NC6=NCCN6)C[C@H](CCNC6=NCCN6)O5)cc4)c(=O)nc3[nH]2)c1` (stereo partly drawn) [Compound 138], the MIC in assay [1] and in assay [2] was not above 16 µg/mL in each case.
As for `C=C[C@@H](CCNC(=N)N)NCc1ccc(-n2cc3cc(-c4cc([C@H]5CC[C@H](CN)O5)cc(Cl)c4F)[nH]c3nc2=O)cc1` [Compound 139], the minimum inhibitory concentration (MIC) in assay [1] and in assay [2] was not above 16 µg/mL each time.
For the molecule `C=C[C@@H](CCNC(=N)N)NCc1ccc(-n2cc3cc(-c4cc([C@H]5CC[C@@H](CN)O5)cc(Cl)c4F)[nH]c3nc2=O)cc1` [Compound 140], the MIC in assay [1] and in assay [2] was not above 16 µg/mL in each case.
With `C=C[C@@H](CCNC(=N)N)NCc1ccc(-n2cc3cc(-c4cc([C@@H]5CC[C@@H](CN)O5)cc(Cl)c4F)[nH]c3nc2=O)cc1` [Compound 141], the minimal inhibitory concentration (MIC) in assay [1] and in assay [2] was not above 16 µg/mL in each case.
Consider `C=C[C@@H](CCNC(=N)N)NCc1ccc(-n2cc3cc(-c4cc([C@@H]5CC[C@H](CN)O5)cc(Cl)c4F)[nH]c3nc2=O)cc1` [Compound 142], for which the MIC in assay [1] and in assay [2] was not above 16 µg/mL throughout.
In the case of `C[C@H](N)CCCc1cc(Cl)c(F)c(-c2cc3cn(-c4ccc([C@H]5CC(N)C[C@H](CCNC6=NCCN6)O5)cc4)c(=O)nc3[nH]2)c1` (stereo partly drawn) [Compound 143], the MIC in assay [1] and in assay [2] was not above 16 µg/mL throughout.
For the molecule `N=C(N)NCC[C@H]1CN(c2ccc(-n3cc4cc(CCNC5CCNCC5)[nH]c4nc3=O)cc2)CCO1` [Compound 144], the MIC in assay [1] was not above 16 µg/mL; in assay [2] it was more than 16 µg/mL.
Taken in the same sequence, the figures for `N=C(N)NCC[C@H]1CN(c2ccc(-n3cc4cc(C5CCNC5)[nH]c4nc3=O)cc2)CCO1` (stereo partly drawn) [Compound 145] were more than 16 µg/mL and more than 16 µg/mL.
As for `N=C(N)NCC[C@@H]1CN(c2ccc(-n3cc4cc(CCNC5CCNCC5)[nH]c4nc3=O)cc2)CCO1` [Compound 146], the minimum inhibitory concentration (MIC) in assay [1] and in assay [2] was more than 16 µg/mL in each case.
As for `N=C(N)NCC[C@@H]1CN(c2ccc(-n3cc4cc(C5CCNC5)[nH]c4nc3=O)cc2)CCO1` (stereo partly drawn) [Compound 147], the MIC in assay [1] and in assay [2] was more than 16 µg/mL throughout.
For the molecule `C[C@H](NCCCNC(=N)N)c1ccc(-n2cc3cc(-c4cc([C@@H]5CC[C@@H](CN)O5)cc(Cl)c4F)[nH]c3nc2=O)cc1` [Compound 148], the MIC in assay [1] and in assay [2] was not above 16 µg/mL throughout.
As for `C[C@H](NCCCNC(=N)N)c1ccc(-n2cc3cc(-c4cc([C@@H]5CC[C@H](CN)O5)cc(Cl)c4F)[nH]c3nc2=O)cc1` [Compound 149], the minimum inhibitory concentration (MIC) in assay [1] and in assay [2] was not above 16 µg/mL in each case.
Take `N=C(CF)NCC[C@@H]1CCC[C@@H](c2ccc(-n3cc4cc(-c5cc(CCC[C@@H](N)CO)cc(Cl)c5F)[nH]c4nc3=O)cc2)N1` [Compound 150]: the MIC in assay [1] and in assay [2] was not above 16 µg/mL throughout.
